Common to all, as to type: ADME
Data set [1] is described as follows: Drug metabolism assessed as […] incubated for 1 min in presence of human recombinant N-terminal His-tagged DCK Ala119Gly mutant expressed in Escherichia coli BL21(DE3) cells by liquid chromatography-tandem mass spectrometry.
Data set [2] is described as follows: Drug metabolism assessed as […] incubated for 1 min in presence of human recombinant N-terminal His-tagged DCK Ile24Val mutant expressed in Escherichia coli BL21(DE3) cells by liquid chromatography-tandem mass spectrometry.
Data set [3] is described as follows: Drug metabolism assessed as […] incubated for 1 min in presence of human recombinant N-terminal His-tagged DCK Pro122Ser mutant expressed in Escherichia coli BL21(DE3) cells by liquid chromatography-tandem mass spectrometry.
A short description of data set [4]: Ratio of intrinsic clearance for human recombinant N-terminal His-tagged DCK Ile24Val mutant expressed in Escherichia coli BL21(DE3) cells to intrisic clerance for human recombinant N-terminal His-tagged wild type DCK expressed in Escherichia coli BL21(DE3) cells.
Data set [5] can be described thus: Activity of human recombinant N-terminal His-tagged DCK Ile24Val mutant expressed in Escherichia coli BL21(DE3) cells assessed as cytosine-beta-D-arabinofuranoside-5'-MP formation incubated for 3 mins by liquid chromatography-tandem mass spectrometry. The note with it: 0.05 h.
Data set [6] is described as follows: Activity of human recombinant N-terminal His-tagged DCK Ala119Gly mutant expressed in Escherichia coli BL21(DE3) cells assessed as cytosine-beta-D-arabinofuranoside-5'-MP formation incubated for 3 mins by liquid chromatography-tandem mass spectrometry. The note with it: 0.05 h.
A short description of data set [7]: Activity of human recombinant N-terminal His-tagged DCK Pro122Ser mutant expressed in Escherichia coli BL21(DE3) cells assessed as cytosine-beta-D-arabinofuranoside-5'-MP formation incubated for 3 mins by liquid chromatography-tandem mass spectrometry. The note with it: 0.05 h.

As a reminder, the Km is the concentration of substrate that gives half-maximal velocity. By Vmax is commonly meant the rate approached at saturating substrate. In the case of `Nc1ccn([C@@H]2O[C@H](CO)[C@@H](O)C2(F)F)c(=O)n1` [GEMCITABINE], the Km in data set [1] stood at 1.75 µM; in data set [2], 1.52 µM; in data set [3] it was 1.43 µM. The Vmax in data set [1] was 828.1 nmol/min/mg; in data set [2], 1234 nmol/min/mg; in data set [3], 573.2 nmol/min/mg. Moreover, the Ratio in data set [4] is 2.
On to `Nc1ccn([C@@H]2O[C@H](CO)[C@@H](O)[C@@H]2O)c(=O)n1` [CYTARABINE], for which the figures for the Km in data set [5], in data set [6] and in data set [7] were 2.45 µM, 2.54 µM and 1.56 µM, respectively. Besides, the Vmax amounted to 599.4 nmol/min/mg in data set [5], 580.3 nmol/min/mg in data set [6] and 264 nmol/min/mg in data set [7].

(Values after ChEMBL document CHEMBL3525898, “Pharmacogenomics of gemcitabine metabolism: functional analysis of genetic variants in cytidine deaminase and deoxycytidine kinase” (Drug Metab Dispos, 2013).)
